Here are results for 23 molecules from US20220087987A1, “A METHOD FOR TREATING SWI/SNF COMPLEX-DEFICIENT CANCERS COMPRISING GLUTATHIONE (GSH) METABOLIC PATHWAY INHIBITOR” (National Cancer Center, priority 2018, published 2022).

One data set deals with ARID1A-WT HCT116 cells. Briefly: Drug library screen, cell viability (CellTiter-Glo). Type of data set: cell-based, human. The settings on record: HCT116 ARID1A-WT; 10 μM for 5 days; relative to cells treated with solvent (DMSO). The procedure: (§1) ARID1A-WT and ARID1A-KO HCT116 cancer cells were used for screening assays. […] Cell viability was assessed after 5 days using the CellTiter-Glo Luminescent Cell Viability Assay (Promega). Luminescence was measured using an Envision Multi-label plate reader (PerkinElmer). The luminescence reading was used to determine the cell viability relative to that of cells treated with solvent (DMSO). Candidate compounds were considered if viability of ARID1A-KO cells was less than […] was more than 80%.
A general note: Cellular ATP, detected with luciferase, serves as a proxy for viable cell number.

A further data set has as its system ARID1A-KO HCT116 cells. The description is as above. Type of data set: cell-based, human. The settings on record: HCT116 ARID1A-KO; 10 μM for 5 days; relative to cells treated with solvent (DMSO). The procedure: as §1

For `C[C@H](NC(=O)Cc1cc(F)cc(F)c1)C(=O)N[C@H](C(=O)OC(C)(C)C)c1ccccc1` [DAPT], the “Cell viability, WT” value in the data set with ARID1A-WT HCT116 cells came to 93.12. The “Cell viability, KO” value in the data set on ARID1A-KO HCT116 cells came to 103.8309.

Consider `NCCCC(N)(C(=O)O)C(F)F` (stereo not shown) [DFMO], for which, in the data set with ARID1A-WT HCT116 cells, the “Cell viability, WT” value amounted to 98.8. Besides, the “Cell viability, KO” value in the data set with ARID1A-KO HCT116 cells was found to be 117.8191.

`O=S(=O)(O)c1cc(N=C=S)ccc1C=Cc1ccc(N=C=S)cc1S(=O)(=O)O` [DIDS]: in the data set with ARID1A-WT HCT116 cells, the “Cell viability, WT” value is listed as 97.04. For the same molecule, the “Cell viability, KO” value in the data set with ARID1A-KO HCT116 cells is listed as 107.2053.

On to `CN(C)c1nc2c(Br)c(Br)c(Br)c(Br)c2[nH]1` [DMAT], for which the “Cell viability, WT” value with ARID1A-WT HCT116 cells came to 113.7397. The “Cell viability, KO” value in the data set on ARID1A-KO HCT116 cells was determined as 116.7866.

As for `COC(=O)CNC(=O)C(=O)OC` [Dimethyloxalylglycine], in the data set on ARID1A-WT HCT116 cells, the “Cell viability, WT” value is 95.769. Also, the “Cell viability, KO” value in the data set with ARID1A-KO HCT116 cells is reported as 119.9436.

On to `CCCCCCCC(=O)OCCOC(=O)CCCCCCC` [Dioctanoylglycol], for which the “Cell viability, WT” value in the data set on ARID1A-WT HCT116 cells worked out at 99.78. The “Cell viability, KO” value with ARID1A-KO HCT116 cells is listed as 109.4112.

In the case of `CCOC(=O)[C@H]1O[C@@H]1C(=O)N[C@@H](CC(C)C)C(=O)NCCC(C)C` [E-64d], in the data set with ARID1A-WT HCT116 cells, the “Cell viability, WT” value is 100.8821. The “Cell viability, KO” value in the data set on ARID1A-KO HCT116 cells was 100.5678.

As for `Nc1[nH]nc2nnc(-c3c(-c4ccccc4)nn4ccccc34)cc12` [ERK inhibitor II], the “Cell viability, WT” value with ARID1A-WT HCT116 cells is listed as 103.8555. Further, in the data set with ARID1A-KO HCT116 cells, the “Cell viability, KO” value stood at 160.6702.

`CCCCCC#CCC#CCC#CCC#CCCCC(=O)O` [ETYA]: the “Cell viability, WT” value with ARID1A-WT HCT116 cells is on record as 95.86. Besides, the “Cell viability, KO” value in the data set on ARID1A-KO HCT116 cells is on record as 110.2846.

With `COc1ccc2c3c([nH]c2c1)[C@H](C=C(C)C)N1C(=O)[C@@H]2CCCN2C(=O)[C@@H]1C3` [Fumitremorgin C], the “Cell viability, WT” value in the data set with ARID1A-WT HCT116 cells was found to be 90.41. The “Cell viability, KO” value in the data set on ARID1A-KO HCT116 cells is recorded as 97.39.

Turning to `CCCC[C@@H](C)[C@@H](OC(=O)C[C@@H](CC(=O)O)C(=O)O)[C@H](C[C@@H](C)C[C@H](O)CCCC[C@@H](O)C[C@H](O)[C@H](C)N)OC(=O)C[C@@H](CC(=O)O)C(=O)O` [Fumonisin B1], the “Cell viability, WT” value with ARID1A-WT HCT116 cells is 87.23. In the data set with ARID1A-KO HCT116 cells, the “Cell viability, KO” value is 83.33.

Regarding `COc1ccc2c(c1)c1c3c(c4c5ccccc5n(C)c4c1n2CC(O)CN(C)C)C(=O)NC3=O` (stereo not shown) [Go7874], in the data set on ARID1A-WT HCT116 cells, the “Cell viability, WT” value is reported as 3.01. The “Cell viability, KO” value in the data set on ARID1A-KO HCT116 cells is listed as 4.256.

As to `CC1CNCCN1S(=O)(=O)c1cccc2cnccc12` (stereo not shown) [H-7], the “Cell viability, WT” value in the data set with ARID1A-WT HCT116 cells is listed as 116.4721. Further, in the data set with ARID1A-KO HCT116 cells, the “Cell viability, KO” value is recorded as 70.52.

Take `O=S(=O)(NCCNC/C=C/c1ccc(Br)cc1)c1cccc2cnccc12` [H-89]: the “Cell viability, WT” value in the data set with ARID1A-WT HCT116 cells turned out to be 78.81. In addition, the “Cell viability, KO” value with ARID1A-KO HCT116 cells is 119.4541.

`CCOC(=O)C1=C(N)Oc2ccc(Br)cc2C1C(C#N)C(=O)OCC` (stereo not shown) [HA 14-1]: the “Cell viability, WT” value in the data set with ARID1A-WT HCT116 cells is reported as 114.2556. Moreover, the “Cell viability, KO” value with ARID1A-KO HCT116 cells was 119.1814.

On to `CCCCN1C(=O)C2Cc3c([nH]c4ccccc34)C(c3cccc(O)c3)N2C1=O` (stereo not shown) [HR22C16], for which, in the data set with ARID1A-WT HCT116 cells, the “Cell viability, WT” value stood at 12.52. For the same molecule, the “Cell viability, KO” value with ARID1A-KO HCT116 cells was found to be 17.39.

Take `CC(C)Cn1c(=O)n(C)c(=O)c2[nH]cnc21` [IBMX]: the “Cell viability, WT” value in the data set on ARID1A-WT HCT116 cells is 159.7152. In addition, the “Cell viability, KO” value with ARID1A-KO HCT116 cells was determined as 114.2526.

As for `O=Cc1ccc(N2CCOCC2)cc1O` [IC60211], the “Cell viability, WT” value in the data set with ARID1A-WT HCT116 cells was found to be 131.0236. Moreover, the “Cell viability, KO” value with ARID1A-KO HCT116 cells worked out at 174.6736.

Turning to `NC(=O)Nc1sc(-c2ccccc2)cc1C(N)=O` [IKK-2 inhibitor VI], the “Cell viability, WT” value in the data set on ARID1A-WT HCT116 cells was 19.28. For the same molecule, in the data set on ARID1A-KO HCT116 cells, the “Cell viability, KO” value stood at 22.26.

In the case of `O=C(Nc1nc2ccccc2n1CCN1CCOCC1)c1cccc([N+](=O)[O-])c1` [IRAK-¼ inhibitor], in the data set on ARID1A-WT HCT116 cells, the “Cell viability, WT” value amounted to 142.234. In addition, in the data set with ARID1A-KO HCT116 cells, the “Cell viability, KO” value turned out to be 160.7174.

Consider `Cc1ccc2nc(NC(=O)CSc3nc4c(c(=O)n3-c3ccccc3)SCC4)sc2c1` [IWP-2], for which the “Cell viability, WT” value in the data set on ARID1A-WT HCT116 cells stood at 78.56. Also, the “Cell viability, KO” value in the data set with ARID1A-KO HCT116 cells is 90.8.

In the case of `O=C(Nc1cccc2cccnc12)c1ccc(N2C(=O)[C@@H]3[C@H](C2=O)[C@@H]2C=C[C@H]3C2)cc1` [IWR-1-endo], in the data set on ARID1A-WT HCT116 cells, the “Cell viability, WT” value came out at 76.34. In addition, the “Cell viability, KO” value in the data set with ARID1A-KO HCT116 cells stood at 75.98.

On to `CCOc1nc(NC(=O)Cc2cc(OC)ccc2OC)cc(N)c1C#N` [JNK inhibitor VIII], for which the “Cell viability, WT” value in the data set with ARID1A-WT HCT116 cells was found to be 127.134. Moreover, in the data set on ARID1A-KO HCT116 cells, the “Cell viability, KO” value is 189.4425.
